Laboratory results published in BindingDB's records for doi:10.1074/jbc.M113.510743 (Max Planck Institute of Biophysics, 2014).
pKd: −log10 of the molar value.

Target: T1, APC family lysine-specific permease (Salmonella typhimurium (strain LT2 / SGSC1412 / ATCC 700720), UniProt Q8ZNK9)
T1 sequence (Q8ZNK9 whole entry): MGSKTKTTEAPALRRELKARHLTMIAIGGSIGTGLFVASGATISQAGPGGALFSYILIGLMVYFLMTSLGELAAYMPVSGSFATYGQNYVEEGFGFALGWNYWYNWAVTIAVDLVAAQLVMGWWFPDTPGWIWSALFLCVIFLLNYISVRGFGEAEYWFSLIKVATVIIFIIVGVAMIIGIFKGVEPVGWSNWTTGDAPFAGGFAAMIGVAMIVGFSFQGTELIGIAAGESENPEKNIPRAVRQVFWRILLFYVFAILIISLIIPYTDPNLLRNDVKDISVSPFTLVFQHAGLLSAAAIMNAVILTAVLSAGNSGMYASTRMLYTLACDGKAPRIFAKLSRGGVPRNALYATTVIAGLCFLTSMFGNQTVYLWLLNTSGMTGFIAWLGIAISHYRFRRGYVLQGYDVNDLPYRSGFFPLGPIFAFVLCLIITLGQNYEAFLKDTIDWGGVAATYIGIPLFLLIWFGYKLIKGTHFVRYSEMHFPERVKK
Assay: Isothermal Titration Calorimetry (ITC)
Settings: pH 5.9; 20 °C
Description: ITC measurements were carried out at 20 °C with a VP-ITC calorimeter (GE Healthcare, MicroCal, Inc.) consisting of a 1.45-ml reaction cell. STM2200 in 20 mM MES-NaOH, 150 mM NaCl, 0.025% (w/v) β-DDM, pH 5.9 at concentrations ranging between 15 and 30 μM was titrated with ligands under conditions where the sum of the ionic strengths of ligand and NaCl was always 150 mM. After an initial 4-μl injection, all subsequent ligand additions consisted of 5 μl every 240-300 s. Stirring was at 307 rpm.

SMILES	pKd
NCCCC[C@@H](N)C(=O)O [(2R)-2,6-diaminohexanoic acid]	2.74
NCCCC[C@H](N)C(=O)O [(2S)-2,6-diaminohexanoic acid]	4.40
